US20260364047A1, “METHODS OF SWITCHING NEUROPSYCHIATRIC MEDICATIONS USING ULOTARONT” (Sumitomo Pharma America, Inc., priority 2022, published 2026)
Entries after “also recorded” stand apart in the source; their conditions may differ.

Key:
[1] = Liver triglycerides of rats previously treated with olanzapine; settings: 3 mg/kg po; prior olanzapine 3 mg/kg po
[2] = Daily food intake of rats previously treated with olanzapine; settings: 3 mg/kg/day po
[3] = Changes in body weights of rats previously treated with olanzapine
[4] = Week 1 (Day 1-8), 3 mg/kg po, high-fat diet
[5] = Week 2 (Day 8-14), 3 mg/kg po, prior olanzapine 3 mg/kg po

## Cc1cc2c(s1)Nc1ccccc1N=C2N1CCN(C)CC1 [Olanzapine, olanzapine]
[1]
  Liver triglycerides (μmol total), % vs Vehicle (A): 100.4%
  Liver triglycerides (μmol/g), % vs Vehicle (A): 100.0%
  Liver triglycerides total, Mean: 348 μmol total
  Liver triglycerides, Mean: 37.1 µmol/g
[2]
  Food intake compared to vehicle treated rats (in words): significantly increased
[3]; 3 mg/kg po, this model, earlier in-house experiments
  Increase in body weight, previously shown in-house: 4-6%
[3]; 3 mg/kg/day po
  Body weight compared to vehicle treated rats (in words): An increase in body weight; also recorded: significantly increased body weight
[3]; 3 mg/kg/day po, as early as, following dosing
  Time to initial effects on body weight and food intake: 2 to 3 days
[3]; [4]
  Changes in body weights, Difference vs Vehicle (A): 13.07 g
  Changes in body weights, Mean: 25.48 g
[3]; [5]
  Changes in body weights, Difference vs Vehicle (A): 7.55 g
  Changes in body weights, Mean: 16.70 g
